From US4235911A, “Hydantoin derivatives” (Pfizer Inc., priority 1979, dated 1980)

Experiments:
[1] = tested on: sorbitol levels in the lens and sciatic nerve of diabetic subjects; experiment: lowering of sorbitol levels in the lens and nerve of diabetic subjects; assay type: in vivo; conditions: statement in words
Protocol: (§1) The activity of the compounds of the present invention, as agents for the control of chronic diabetic complications, is determined by their ability to successfully pass one or more of the following standard biological and/or pharmacological tests, viz., (1) measuring their ability to inhibit the enzyme activity of isolated aldose reductase; (2) measuring their ability to reduce or inhibit sorbitol accumulation in the sciatic nerve of acutely streptozotocinized (i.e., diabetic) rats; (3) measuring their ability to reverse already-elevated sorbitol levels in the sciatic nerve and lens of chronic streptozotocin-induced diabetic rats; (4) measuring their ability to prevent or inhibit galactitol formation in the lens of acutely galactosemic rats, and (5) measuring their ability to delay cataract formation and reduce the severity of lens opacities in chronic galactosemic rats.

[2] = target: T1, aldose reductase (Bos taurus, UniProt P16116); experiment: inhibition of isolated aldose reductase enzyme activity (procedure of S. Hayman et al. as modified by K. Sestanj et al.); assay type: biochemical, calf; conditions: for IC50: partially purified aldose reductase from calf lens, 50% reduction in enzyme activity, read-out: Concentration Level (IC50); for aldose reductase inhibitory activity: statement in words
T1 construct: partially purified aldose reductase enzyme obtained from calf lens; from tissue; host or cells: calf lens
Protocol: as §1, with “rats. The following tetrahydroquinoline-derived spiro-hydantoin compounds of Examples 1-4, respectively, were tested for their ability to reduce or inhibit aldose reductase enzyme activity via the procedure of S. Hayman et al., as described in the Journal of Biological Chemistry, Vol. 240, p. 877 (1965) and as modified by K. Sestanj et al. in U.S. Pat. No. 3,821,383. In every case, the substrate employed was partially purified aldose reductase enzyme obtained from calf lens.” for “rats.”

[3] = tested on: galactitol levels in the lens of galactosemic subjects; experiment: lowering of galactitol levels in the lens of galactosemic subjects; assay type: in vivo; conditions: statement in words
Protocol: as §1

[4] = toxic side effects in diabetic rats, oral; assay type: in vivo, rat; conditions: 5.0 mg./kg. to 25 mg./kg.
Excerpt: (§2) As previously indicated, the tetrahydroquinoline-derived spiro-hydantoin compounds of this invention are all readily adapted to therapeutic use as aldose reductase inhibitors for the control of chronic diabetic complications, in view of their ability to reduce lens sorbitol levels in diabetic subjects to a statistically significant degree. […] The other compounds of this invention also cause similar results. Furthermore, all the herein described compounds of this invention can be administered by either the oral or parenteral routes of administration, for the present purposes at hand, without causing any significant untoward pharmacological side reactions to occur in the subject to whom they are so administered. In general, these compounds are ordinarily administered in dosages ranging from about 0.25 mg. to about 25 mg. per kg. of body weight per day, although variations will necessarily occur depending upon the weight and condition of the subject being treated and the particular route of administration chosen.

[5] = tested on: formation of sorbitol levels in diabetic rats; experiment: inhibition of formation of sorbitol levels in diabetic rats, oral; assay type: in vivo, rat; conditions: 5.0 mg./kg. to 25 mg./kg.
Excerpt: as §2

| Structure (SMILES) | lowering sorbitol levels in the lens and sciatic nerve of diabetic subjects [1] | IC50 [2] [µM] | aldose reductase inhibitory activity [2] | lowering galactitol levels in the lens of galactosemic subjects [3] | toxic side effects [4] | control (i.e., inhibit) the formation of sorbitol levels in diabetic rats [5] |
| --- | --- | --- | --- | --- | --- | --- |
| CN1CCC2(NC(=O)NC2=O)c2ccccc21.Cl (stereo not drawn) [Product of Example 1, 1'-methyl-1',2',3',4'-tetrahydro-spiro-[imidazolidine-4,4'-quinoline]-2,5-dione hydrochloride] | extremely effective | 50 | highly potent | extremely effective | – | – |
| O=C1NC(=O)C2(CCNc3ccc(Cl)cc32)N1 (stereo not drawn) [Product of Example 4, 6'-chloro-1',2',3',4'-tetrahydro-spiro-[imidazolidine-4,4'-quinoline]-2,5-dione] | extremely effective | 1 | highly potent | extremely effective | without showing any substantial signs of toxic side effects | to a significantly high degree |
| CN1CCC2(NC(=O)NC2=O)c2cccnc21 (stereo not drawn) [Product of Example 2, 1'-methyl-1',2',3',4'-tetrahydro-spiro-[imidazolidine-4,4'-pyrido(2,3-b)pyridine]-2,5-dione] | extremely effective | 10 | highly potent | extremely effective | – | – |
| O=C1NC(=O)C2(CCNc3cc(Cl)ccc32)N1 (stereo not drawn) [Product of Example 3, 7'-chloro-1',2',3',4'-tetrahydro-spiro-[imidazolidine-4,4'-quinoline]-2,5-dione] | extremely effective | 10 | highly potent | extremely effective | – | – |
